How the values were obtained:
[1] = Sensory evaluation in granular pea protein (Experimental Example 15); details: Table 29
Description: Each compound shown in the following Table 29 was added to granular pea protein (manufactured by Roquette) so as to achieve the concentration (addition concentration) shown in the following Table 29 to prepare each evaluation sample.
(§1) Based on the following evaluation criteria, a panel of four experts determined by consensus the intensity of off-tastes (bitter taste, harsh taste, astringent taste) derived from pea protein in each evaluation sample, by comparison with granular pea protein without addition of any compound (negative control).

[2] = Sensory evaluation in 1 wt % methyl cellulose aqueous solution (Experimental Example 20); details: Table 35
Description: Each compound shown in the following Table 35 was added to a 1 wt % methyl cellulose aqueous solution (aqueous solution prepared by dissolving methyl cellulose (1 part by weight) in water (99 parts by weight)) so as to achieve the concentration (addition concentration) shown in the following Table 35 to prepare each evaluation sample. Here, the methyl cellulose manufactured by Unitec Foods Co., Ltd. was used.
as §1, with “methyl cellulose” for “pea protein”, “a 1 wt % methyl cellulose aqueous solution” for “granular pea protein”

[3] = Sensory evaluation in 1.5 wt % disodium phosphate aqueous solution (Experimental Example 19); details: Table 34
Description: Each compound shown in the following Table 34 was added to a 1.5 wt % disodium phosphate aqueous solution (aqueous solution prepared by dissolving disodium phosphate (1.5 parts by weight) in water (98.5 parts by weight)) so as to achieve the concentration (addition concentration) shown in the following Table 34 to prepare each evaluation sample.
as §1, with “disodium phosphate” for “pea protein”, “a 1.5 wt % disodium phosphate aqueous solution” for “granular pea protein”

[4] = Sensory evaluation in stevia aqueous solution (Experimental Example 7); details: text summary of Table 21
Description: Each compound shown in the following Table 21 was added […] to an aqueous solution prepared by dissolving stevia (manufactured by PureCircle) ([…]) in ion exchange water (99.93 parts by weight) (hereinafter at times referred to as stevia aqueous solution) so as to achieve the concentration (addition concentration) shown in the following Table 21 to prepare each evaluation sample.
as §1, with “metallic” for “astringent”, “stevia” for “pea protein”, “a stevia aqueous solution” for “granular pea protein”

[5] = Sensory evaluation in 0.15 wt % catechin aqueous solution (Experimental Example 9); details: summary of Table 23
Description: (§2) Each compound shown in the following Table 23 was added to a 0.15 wt % catechin aqueous solution (an aqueous solution prepared by dissolving catechin (0.15 parts by weight) in ion exchange water (99.85 parts by weight)) so as to achieve the concentration (addition concentration) shown in the following Table 23 to prepare each evaluation sample.
as §1, with “taste, rough taste,” for “taste,”, “harsh” for “harsh taste, astringent”, “catechin” for “pea protein”, “a 0.15 wt % catechin aqueous solution” for “granular pea protein”

[6] = Sensory evaluation in pea protein aqueous solution (Experimental Example 8); details: text summary of Table 22
Description: Each compound shown in the following Table 22 was added to an aqueous solution prepared by dissolving powdered pea protein (6 parts by weight) and granulated sugar (4 parts by weight) in ion exchange water (90 parts by weight) (hereinafter at times referred to as pea protein aqueous solution) so as to achieve the concentration (addition concentration) shown in the following Table 22 to prepare each evaluation sample. Here, the powdered pea protein manufactured by Cosucra was used.
(§3) Based on the following evaluation criteria, a panel of four experts determined by consensus the intensity of off-tastes (bitter taste, harsh taste, astringent taste) derived from pea protein in each evaluation sample, by comparison with a pea protein aqueous solution without addition of any compound (negative control).

[7] = Sensory evaluation in 0.007 wt % sucralose aqueous solution (Experimental Example 11); details: Table 25
Description: as §2, with “25” for “23”, “0.007” for “0.15”, “sucralose” for “catechin”, “sucralose (0.007” for “catechin (0.15”, “in” for “in ion exchange”, “(99.993” for “(99.85”
as §3, with “of three” for “of four”, “taste, metallic” for “taste, astringent”, “from sucralose” for “from pea protein”, “a 0.007 wt % sucralose” for “a pea protein”

[8] = Sensory evaluation in sodium acetate aqueous solution (Experimental Example 18); details: Table 33
Description: Each compound shown in the following Table 33 was added to an aqueous solution prepared by dissolving sodium acetate (1 part by weight) and acetic acid (0.3 parts by weight) in water (98.7 parts by weight) (hereinafter at times referred to as sodium acetate aqueous solution) so as to achieve the concentration (addition concentration) shown in the following Table 33 to prepare each evaluation sample.
as §3, with “sodium acetate” for “pea protein”

[9] = Sensory evaluation in soy protein hamburg steak (Experimental Example 17); details: Table 32
Description: Of the materials shown in the following Table 31, the materials of category 1 were first mixed, and the materials of category 2 were further mixed. The obtained mixture was formed into a circular shape of about 100 g per piece, and then baked at 180° C. for 2 minutes and 30 seconds for each of the front and back sides on an iron plate to produce a soy protein hamburg steak. Here, the granular soy protein manufactured by FUJI OIL CO., LTD. was used.
Each compound shown in the following Table 32 was added to soy protein hamburg steak so as to achieve the concentration (addition concentration) shown in the following Table 32 to prepare each evaluation sample.
Based on the following evaluation criteria, a panel of five experts determined by consensus the intensity of off-tastes (bitter taste, harsh taste, astringent taste) derived from soy protein in each evaluation sample, by comparison with soy protein hamburg steak without addition of any compound (negative control).

[10] = Sensory evaluation in granular soy protein (Experimental Example 14); details: text summary of Table 28
Description: Each compound shown in the following Table 28 was added to granular soy protein (manufactured by FUJI OIL CO., LTD.) so as to achieve the concentration (addition concentration) shown in the following Table 28 to prepare each evaluation sample.
as §1, with “soy” for “pea”

CC(=O)c1ccc(C)o1 [2-acetyl-5-methylfuran]
suppressed: intensity of off-tastes (bitter taste, harsh taste, astringent taste) derived from pea protein [1] | intensity of off-tastes (bitter taste, harsh taste, astringent taste) derived from methyl cellulose [2] | intensity of off-tastes (bitter taste, harsh taste, astringent taste) derived from disodium phosphate [3] | intensity of off-tastes (bitter taste, harsh taste, metallic taste) derived from stevia [4] | intensity of off-tastes (bitter taste, rough taste, harsh taste) derived from catechin [5] | intensity of off-tastes (bitter taste, harsh taste, astringent taste) derived from pea protein [6] | intensity of off-tastes (bitter taste, harsh taste, metallic taste) derived from sucralose [7] | intensity of off-tastes (bitter taste, harsh taste, astringent taste) derived from sodium acetate [8] | intensity of off-tastes (bitter taste, harsh taste, astringent taste) derived from soy protein [9] | intensity of off-tastes (bitter taste, harsh taste, astringent taste) derived from soy protein [10]

CC(=O)c1ccco1 [2-acetylfuran]
suppressed: intensity of off-tastes (bitter taste, harsh taste, astringent taste) derived from pea protein [1] | intensity of off-tastes (bitter taste, harsh taste, astringent taste) derived from methyl cellulose [2] | intensity of off-tastes (bitter taste, harsh taste, astringent taste) derived from disodium phosphate [3] | intensity of off-tastes (bitter taste, harsh taste, metallic taste) derived from stevia [4] | intensity of off-tastes (bitter taste, rough taste, harsh taste) derived from catechin [5] | intensity of off-tastes (bitter taste, harsh taste, astringent taste) derived from pea protein [6] | intensity of off-tastes (bitter taste, harsh taste, metallic taste) derived from sucralose [7] | intensity of off-tastes (bitter taste, harsh taste, astringent taste) derived from sodium acetate [8] | intensity of off-tastes (bitter taste, harsh taste, astringent taste) derived from soy protein [9] | intensity of off-tastes (bitter taste, harsh taste, astringent taste) derived from soy protein [10]

CC1OCCC1=O (stereo not drawn) [2-methyltetrahydrofuran-3-one]
suppressed: intensity of off-tastes (bitter taste, harsh taste, astringent taste) derived from pea protein [1] | intensity of off-tastes (bitter taste, harsh taste, astringent taste) derived from methyl cellulose [2] | intensity of off-tastes (bitter taste, harsh taste, astringent taste) derived from disodium phosphate [3] | intensity of off-tastes (bitter taste, harsh taste, metallic taste) derived from stevia [4] | intensity of off-tastes (bitter taste, rough taste, harsh taste) derived from catechin [5] | intensity of off-tastes (bitter taste, harsh taste, astringent taste) derived from pea protein [6] | intensity of off-tastes (bitter taste, harsh taste, metallic taste) derived from sucralose [7] | intensity of off-tastes (bitter taste, harsh taste, astringent taste) derived from sodium acetate [8] | intensity of off-tastes (bitter taste, harsh taste, astringent taste) derived from soy protein [9] | intensity of off-tastes (bitter taste, harsh taste, astringent taste) derived from soy protein [10]

CC1=C(O)C(=O)CC1 [cyclotene]
suppressed: intensity of off-tastes (bitter taste, harsh taste, astringent taste) derived from pea protein [1] | intensity of off-tastes (bitter taste, harsh taste, astringent taste) derived from methyl cellulose [2] | intensity of off-tastes (bitter taste, harsh taste, astringent taste) derived from disodium phosphate [3] | intensity of off-tastes (bitter taste, harsh taste, metallic taste) derived from stevia [4] | intensity of off-tastes (bitter taste, rough taste, harsh taste) derived from catechin [5] | intensity of off-tastes (bitter taste, harsh taste, astringent taste) derived from pea protein [6] | intensity of off-tastes (bitter taste, harsh taste, metallic taste) derived from sucralose [7] | intensity of off-tastes (bitter taste, harsh taste, astringent taste) derived from sodium acetate [8] | intensity of off-tastes (bitter taste, harsh taste, astringent taste) derived from soy protein [9] | intensity of off-tastes (bitter taste, harsh taste, astringent taste) derived from soy protein [10]

O=Cc1ccco1 [furfural, Furfural]
suppressed: intensity of off-tastes (bitter taste, harsh taste, astringent taste) derived from pea protein [1] | intensity of off-tastes (bitter taste, harsh taste, astringent taste) derived from methyl cellulose [2] | intensity of off-tastes (bitter taste, harsh taste, astringent taste) derived from disodium phosphate [3] | intensity of off-tastes (bitter taste, harsh taste, metallic taste) derived from stevia [4] | intensity of off-tastes (bitter taste, rough taste, harsh taste) derived from catechin [5] | intensity of off-tastes (bitter taste, harsh taste, astringent taste) derived from pea protein [6] | intensity of off-tastes (bitter taste, harsh taste, metallic taste) derived from sucralose [7] | intensity of off-tastes (bitter taste, harsh taste, astringent taste) derived from sodium acetate [8] | intensity of off-tastes (bitter taste, harsh taste, astringent taste) derived from soy protein [9] | intensity of off-tastes (bitter taste, harsh taste, astringent taste) derived from soy protein [10]

CCC(=O)O [propionic acid]
suppressed: intensity of off-tastes (bitter taste, harsh taste, astringent taste) derived from pea protein [1] | intensity of off-tastes (bitter taste, harsh taste, astringent taste) derived from methyl cellulose [2] | intensity of off-tastes (bitter taste, harsh taste, astringent taste) derived from disodium phosphate [3] | intensity of off-tastes (bitter taste, harsh taste, metallic taste) derived from stevia [4] | intensity of off-tastes (bitter taste, rough taste, harsh taste) derived from catechin [5] | intensity of off-tastes (bitter taste, harsh taste, astringent taste) derived from pea protein [6] | intensity of off-tastes (bitter taste, harsh taste, metallic taste) derived from sucralose [7] | intensity of off-tastes (bitter taste, harsh taste, astringent taste) derived from sodium acetate [8] | intensity of off-tastes (bitter taste, harsh taste, astringent taste) derived from soy protein [9] | intensity of off-tastes (bitter taste, harsh taste, astringent taste) derived from soy protein [10]

From patent US20220279826A1, “OFF-FLAVOR SUPPRESSING AGENT” (AJINOMOTO CO., INC., priority 2019, published 2022)
